ChEMBL document CHEMBL2331354, “Spirocyclic replacements for the isatin in the highly selective, muscarinic M1 PAM ML137: the continued optimization of an MLPCN probe molecule” (Bioorg Med Chem Lett, 2013)
Calls of active or inactive are those of the source. The rule behind the calls is not given here.

Key:
[1] = target: T1, Muscarinic acetylcholine receptor M1 (Homo sapiens, UniProt P11229); experiment: Positive allosteric modulation of human muscarinic M1 receptor
T1 sequence (P11229 whole entry): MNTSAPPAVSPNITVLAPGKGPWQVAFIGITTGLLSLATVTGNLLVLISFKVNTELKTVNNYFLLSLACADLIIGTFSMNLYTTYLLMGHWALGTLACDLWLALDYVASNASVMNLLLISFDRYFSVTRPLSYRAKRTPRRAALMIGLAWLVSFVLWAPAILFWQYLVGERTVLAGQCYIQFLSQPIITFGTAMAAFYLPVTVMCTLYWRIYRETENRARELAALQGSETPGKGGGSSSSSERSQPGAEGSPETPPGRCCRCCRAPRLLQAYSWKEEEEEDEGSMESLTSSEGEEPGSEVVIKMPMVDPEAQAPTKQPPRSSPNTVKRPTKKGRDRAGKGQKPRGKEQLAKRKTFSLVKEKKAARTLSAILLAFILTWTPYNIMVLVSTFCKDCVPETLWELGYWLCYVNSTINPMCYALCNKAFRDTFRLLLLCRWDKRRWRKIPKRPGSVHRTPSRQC

[2] = target: T2, Muscarinic acetylcholine receptor M1 (Homo sapiens) (UniProt P11229); experiment: Positive allosteric modulation of human muscarinic M1 receptor assessed as leftward fold shift of acetylcholine-induced response at 30 uM relative to acetylcholine
T2 sequence (whole entry): T1 sequence (P11229 whole entry)

[3] = target: T2, Muscarinic acetylcholine receptor M1 (Homo sapiens); experiment: Positive allosteric modulation of human muscarinic M1 receptor relative to acetylcholine
[4] = target: T2, Muscarinic acetylcholine receptor M1 (Homo sapiens); experiment: Positive allosteric modulation of human muscarinic M1 receptor at 30 uM

| SMILES | Emax [3] | EC50 [1] | other results |
| --- | --- | --- | --- |
| Cn1cc(-c2ccc(CN3C(=O)C(=O)c4ccccc43)c(F)c2)cn1 | 45% |  | pEC50 [1]: 6.22; fold change (FC) [2]: 2.7 |
| Cc1nn(C)cc1-c1ccc(CN2C(=O)C3(CCN(C4CCCC4)C3)c3ccccc32)c(F)c1 (stereo not drawn) | 41% | 3 µM |  |
| Cn1cc(-c2ccc(CN3C(=O)C4(CCN(C5CCCC5)C4)c4ccccc43)cc2F)cn1 (stereo not drawn) | 28% | 2 µM |  |
| Cn1cc(-c2cc(F)c(CN3C(=O)C4(CCN(C5CCCC5)C4)c4ccccc43)c(F)c2)cn1 (stereo not drawn) | 66% | 2.6 µM |  |
| Cn1cc(-c2ccc(CN3C(=O)C4(CCN(C5CCCC5)C4)c4ccccc43)c(F)c2F)cn1 (stereo not drawn) | 43% | > 10 µM |  |
| Cn1cc(-c2cc(F)c(CN3C(=O)C4(CCN(C5CCCC5)C4)c4ccccc43)cc2F)cn1 (stereo not drawn) | 51% | 4.1 µM |  |
| Cn1cc(-c2ccc(CN3C(=O)C4(CCN(C5CCCC5)C4)c4ccccc43)cc2)cn1 (stereo not drawn) | 44% | 1.8 µM |  |
| CN1CCC2(CCN(Cc3ccc(-c4cnn(C)c4)cc3F)C2=O)C1 (stereo not drawn) | 28% | > 10 µM |  |
| CN1CCC2(CC1)C(=O)N(Cc1ccc(-c3cnn(C)c3)cc1F)c1ccccc12 | 49% | 3.8 µM |  |
| Cn1cc(-c2ccc(CN3C(=O)C4(CCNCC4)c4ccccc43)c(F)c2)cn1 | 29% | > 10 µM |  |
| Cn1cc(-c2ccc(CN3C(=O)C4(OCCO4)c4ccccc43)c(F)c2)cn1 | 62% | 2 µM | fold change (FC) [2]: 27 |
| Cn1cc(-c2ccc(CN3CC4(OCCO4)c4ccccc43)c(F)c2)cn1 | 43% | > 10 µM |  |
| Cn1cc(-c2ccc(CN3C(=O)C4(CCCO4)c4ccccc43)cc2)cn1 (stereo not drawn) | 43% | > 10 µM |  |
| CN1CCCC12C(=O)N(Cc1ccc(-c3cnn(C)c3)cc1)c1ccccc12 (stereo not drawn) | 53% | > 10 µM |  |
| CN1CCCC12C(=O)N(Cc1ccc(Br)cc1)c1ccccc12 (stereo not drawn) |  |  | Activity [4]: inactive |
| C[Si](C)(C)C1COC2(C1)C(=O)N(Cc1ccc(Br)cc1)c1ccccc12 (stereo not drawn) |  |  | Activity [4]: inactive |
| Cc1c(-c2ccc(CN3C(=O)C4(CCN(C5CCCC5)C4)c4ccccc43)c(F)c2)cnn1C (stereo not drawn) |  |  | Activity [4]: inactive |
| Cc1nn(C)c(C)c1-c1ccc(CN2C(=O)C3(CCN(C4CCCC4)C3)c3ccccc32)c(F)c1 (stereo not drawn) |  |  | Activity [4]: inactive |
| Cn1cc(-c2ccc(CN3C(=O)C4(CCN(C5CCCC5)C4)c4ccccc43)c(F)c2)c(C(F)(F)F)n1 (stereo not drawn) |  |  | Activity [4]: inactive |
| Cn1cc(-c2ccc(CN3C(=O)C4(CCNC4)c4ccccc43)c(F)c2)cn1 (stereo not drawn) |  |  | Activity [4]: inactive |
| O=C1N(Cc2ccc(Br)cc2)c2ccccc2C12CCCN2 (stereo not drawn) |  |  | Activity [4]: inactive |
| O=C1N(Cc2ccc(Br)cc2)c2ccccc2C12CCCO2 (stereo not drawn) |  |  | Activity [4]: inactive |
| Cn1cc(-c2ccc(CN3C(=O)C4(CCN(c5ncccn5)C4)c4ccccc43)c(F)c2)cn1 (racemic) | 64% | 2.5 µM | fold change (FC) [2]: 17.4 |
| CCN1CCC2(C1)C(=O)N(Cc1ccc(-c3cnn(C)c3)cc1F)c1ccccc12 (racemic) | 59% | 3.2 µM | fold change (FC) [2]: 8.3 |

| SMILES | Emax [3] | EC50 [1] | other results |
| --- | --- | --- | --- |
| Cn1cc(-c2ccc(CN3C(=O)C4(CCN(CCF)C4)c4ccccc43)c(F)c2)cn1 (racemic) | 60% | 4.1 µM | fold change (FC) [2]: 13.5 |
| Cn1cc(-c2ccc(CN3C(=O)C4(CCN(CC(F)F)C4)c4ccccc43)c(F)c2)cn1 (racemic) | 52% | > 10 µM | fold change (FC) [2]: 5.9 |
| CC(=O)N1CCC2(C1)C(=O)N(Cc1ccc(-c3cnn(C)c3)cc1F)c1ccccc12 (racemic) | 41% | > 10 µM |  |
| Cn1cc(-c2ccc(CN3C(=O)C4(CCN(C(=O)C5CCC5)C4)c4ccccc43)c(F)c2)cn1 (racemic) | 45% | 6.3 µM |  |
| Cn1cc(-c2ccc(CN3C(=O)C4(CCN(C(=O)C5CCCCC5)C4)c4ccccc43)c(F)c2)cn1 (racemic) | 50% | 5 µM |  |
| Cn1cc(-c2ccc(CN3C(=O)C4(CCN(S(C)(=O)=O)C4)c4ccccc43)c(F)c2)cn1 (racemic) | 41% | > 10 µM |  |
| Cn1cc(-c2ccc(CN3C(=O)C4(CCN(C5CCC5)C4)c4ccccc43)c(F)c2)cn1 (racemic) | 48% | > 10 µM |  |
| Cn1cc(-c2ccc(CN3C(=O)C4(CCN(C5CCCC5)C4)c4ccccc43)c(F)c2)cn1 (racemic) [listing 1 of 2 here] |  | 3.1 µM |  |
| Cn1cc(-c2ccc(CN3C(=O)C4(CCN(C5CCCCC5)C4)c4ccccc43)c(F)c2)cn1 (racemic) | 60% | 5.2 µM |  |
| Cn1cc(-c2ccc(CN3C(=O)C4(CCN(C5CCCCCC5)C4)c4ccccc43)c(F)c2)cn1 (racemic) | 50% | 7.5 µM |  |
| CC(C)N1CCC2(C1)C(=O)N(Cc1ccc(-c3cnn(C)c3)cc1F)c1ccccc12 (racemic) | 30% | > 10 µM |  |
| Cn1cc(-c2ccc(CN3C(=O)C4(CCN(C(=O)OC(C)(C)C)C4)c4ccccc43)c(F)c2)cn1 (racemic) |  |  | Activity [4]: inactive |
| Cn1cc(-c2ccc(CN3C(=O)C4(CCN(C5CCCC5)C4)c4ccccc43)c(F)c2)cn1 (racemic) [listing 2 of 2 here] | 57% |  |  |
| Cn1cc(-c2ccc(CN3C(=O)C4(CCN(CC(F)(F)F)C4)c4ccccc43)c(F)c2)cn1 (racemic) |  |  | Activity [4]: inactive |
| Cn1cc(-c2ccc(CN3C(=O)C4(CCN(c5ccccc5)C4)c4ccccc43)c(F)c2)cn1 (racemic) |  |  | Activity [4]: inactive |
| CN1CCC2(C1)C(=O)N(Cc1ccc(-c3cnn(C)c3)cc1F)c1ccccc12 (single isomer, unassigned) [listing 1 of 2 here] |  | 2.9 µM |  |
| CN1CCC2(C1)C(=O)N(Cc1ccc(-c3cnn(C)c3)cc1F)c1ccccc12 (single isomer, unassigned) [listing 2 of 2 here] | 50% |  | fold change (FC) [2]: 7.2 |
| Cn1cc(-c2ccc(CN3C(=O)C4(CCN(C5CCCC5)C4)c4ccccc43)c(F)c2)cn1 (single isomer, unassigned; 19g) [listing 1 of 2 here] |  | 1.6 µM |  |
| Cn1cc(-c2ccc(CN3C(=O)C4(CCN(C5CCCC5)C4)c4ccccc43)c(F)c2)cn1 (single isomer, unassigned; 19g) [listing 2 of 2 here] | 69% |  | fold change (FC) [2]: 28 |
| Cn1cc(-c2ccc(CN3C(=O)C4(CCN(C5CCCC5)C4)c4ccccc43)c(F)c2)cn1 (single isomer, unassigned; 19h) | 33% |  |  |
| CN1CCC2(C1)C(=O)N(Cc1ccc(-c3cnn(C)c3)cc1F)c1ccccc12 (stereo in doubt; 18d) [listing 1 of 2 here] |  | 3.2 µM |  |
| CN1CCC2(C1)C(=O)N(Cc1ccc(-c3cnn(C)c3)cc1F)c1ccccc12 (stereo in doubt; 18d) [listing 2 of 2 here] | 65% |  |  |
| CN1CCC2(C1)C(=O)N(Cc1ccc(-c3cnn(C)c3)cc1F)c1ccccc12 (stereo in doubt; 19a) [listing 1 of 2 here] |  | 2.9 µM |  |
| CN1CCC2(C1)C(=O)N(Cc1ccc(-c3cnn(C)c3)cc1F)c1ccccc12 (stereo in doubt; 19a) [listing 2 of 2 here] | 67% |  | fold change (FC) [2]: 21 |
